Converted amounts (≈) assume the structure as drawn. Where two headings read alike, the source gives them in different places.
Experiments:
A. baumannii 1652 [1] = experiment: minimal bactericidal concentration (MBC) assay, strain 1652; type: cell-based; settings: Acinetobacter baumannii, Table 8, read-out: MBC90 1652
From the text: (§1) Lead quinazolines 4, 5, 26, 29, 27, and 30 were selected to be further evaluated for antimicrobial effects. The first assay utilized was a minimal bactericidal concentration (MBC) assay, to assess whether leads compounds were bacteriostatic or bactericidal. The six lead agents were screened to identify their MBC90 towards each of the six A. baumannii isolates used in the SAR studies (Table 8), however for simplicity only the representative data for isolate 1646 is detailed below (Table 6). […] Further to this, we were able to obtain complete eradication of bacterial growth for these two compounds at 1 μM for 24 and 5 μM for 25.
(§2) MIC and MBC assays were performed in this study as documented by us previously.^17,23,24,25 The A. baumannii strains used are detailed in Table 7.

human HepG2 cells = type: cell-based; settings: for LD50(HepG2): human, 48 h
Description: Cytotoxicity assays were performed using human HepG2 cells (human liver epithelial with hepatocellular carcinoma), as described by us previously.^17,24 Cells were cultured in Dulbecco's modified eagle medium (DMEM), supplemented with 10% fetal bovine serum and 1% penicillin-streptomycin for 3 days at 37° C. and 5% CO2. Cells were then diluted to 1×10^5 ml^−1 using fresh DMEM and added to 96 well tissue culture plates at a volume of 100 μL. Plates were incubated for 24 hours at 37° C. and 5% CO2, allowing the cells to adhere to the plastic. […] Plates were then incubated for 48 hours at 37° C. and 5% CO2. After 48 hours the DMEM was removed and 100 μL of new media was added containing MTT (3-(4, 5-dimethylthiazol-2-yl)-2, 5-diphenyltetrazolium bromide), followed by incubation for four hours at 37° C. and 5% CO2. […] Lead compounds were solvated in 100% DMSO for these studies, which served as the negative control. LD50 values were determined for each compound by comparison to vehicle only controls.

A. baumannii 1649 [2] = experiment: MIC assay, strain 1649; type: cell-based, Acinetobacter baumannii; settings: Acinetobacter baumannii, strain 1649
Description: as §2

A. baumannii 1650 [3] = experiment: minimal bactericidal concentration (MBC) assay, strain 1650; type: cell-based; settings: Acinetobacter baumannii, Table 8, read-out: MBC90 1650
From the text: as §1, §2

A. baumannii 1650 [4] = experiment: MIC assay, strain 1650; type: cell-based, Acinetobacter baumannii; settings: Acinetobacter baumannii, strain 1650
Description: as §2

A. baumannii 1649 [5] = experiment: minimal bactericidal concentration (MBC) assay, strain 1649; type: cell-based; settings: Acinetobacter baumannii, Table 8, read-out: MBC90 1649
From the text: as §1, §2

A. baumannii 1646 [6] = experiment: minimal bactericidal concentration (MBC) assay, strain 1646; type: cell-based, Acinetobacter baumannii
From the text: as §1, §2

A. baumannii 1651 [7] = experiment: MIC assay, strain 1651; type: cell-based, Acinetobacter baumannii; settings: Acinetobacter baumannii, strain 1651
Description: as §2

A. baumannii 1403 [8] = experiment: MIC assay, strain 1403; type: cell-based, Acinetobacter baumannii; settings: Acinetobacter baumannii, strain 1403
Description: as §2

A. baumannii 1646 [9] = experiment: MIC assay, strain 1646; type: cell-based, Acinetobacter baumannii; settings: Acinetobacter baumannii
Description: as §2

[10] = system: A. baumannii 1646 biofilm; experiment: biofilm eradication determination assay, strain 1646; type: cell-based, Acinetobacter baumannii; settings: for MBEC90: Table 6, representative data for isolate 1646; for reduction in biofilm viability: at 50 μM; for reduction in biofilm viability / MBEC90 1646: strain 1646; for MBEC90 1646: 90% biofilm eradication, Table 8 and text
Description: (§3) These assays were performed as described by us previously,^26,24 as follows. Each of the A. baumannii strains were grown overnight in Mueller Hinton Broth (MHB). The next day these were used to seed fresh MHB to an OD600 of 0.5, with 150 μL then added to the wells of a 96 well plate and grown for 24 hours at 37° C. After 24 hours, the planktonic bacteria were carefully removed and fresh MHB was added with increasing concentrations of lead quinazolines. After incubation at 37° C. for 24 hours, planktonic cells were removed and biofilms were washed three times with phosphate buffered saline (PBS). Biofilms were then resuspended in PBS and plated for cell viability on tryptic soy agar. Biofilm recovery was assessed compared to no drug controls, and determined as percent eradication. This was used to determine MBEC90 values (Minimal Biofilm Eradication Concentration), where the viability of cells within the biofilm was reduced by 90%.

A. baumannii 1651 [11] = experiment: minimal bactericidal concentration (MBC) assay, strain 1651; type: cell-based; settings: Acinetobacter baumannii, Table 8, read-out: MBC90 1651
From the text: as §1, §2

[12] = system: A. baumannii 1651 biofilm; experiment: biofilm eradication determination assay, strain 1651; type: cell-based, Acinetobacter baumannii; settings: 90% biofilm eradication, Table 8
Description: as §3

A. baumannii 1652 [13] = experiment: MIC assay, strain 1652; type: cell-based, Acinetobacter baumannii; settings: Acinetobacter baumannii, strain 1652
Description: as §2

A. baumannii 1403 [14] = experiment: minimal bactericidal concentration (MBC) assay, strain 1403; type: cell-based; settings: Acinetobacter baumannii, Table 8, read-out: MBC90 1403
From the text: as §1, §2

[15] = system: A. baumannii 1650 biofilm; experiment: biofilm eradication determination assay, strain 1650; type: cell-based, Acinetobacter baumannii; settings: 90% biofilm eradication, Table 8
Description: as §3

[16] = system: A. baumannii 1403 biofilm; experiment: biofilm eradication determination assay, strain 1403; type: cell-based, Acinetobacter baumannii; settings: 90% biofilm eradication, Table 8
Description: as §3

[17] = system: A. baumannii 1652 biofilm; experiment: biofilm eradication determination assay, strain 1652; type: cell-based, Acinetobacter baumannii; settings: 90% biofilm eradication, Table 8
Description: as §3

[18] = system: A. baumannii 1649 biofilm; experiment: biofilm eradication determination assay, strain 1649; type: cell-based, Acinetobacter baumannii; settings: 90% biofilm eradication, Table 8
Description: as §3

A. baumannii = experiment: MIC assay, A. baumannii isolates (strain not given); type: cell-based, Acinetobacter baumannii; settings: Acinetobacter baumannii; most isolates besides the 1652 strain; read-out: MIC against most isolates
Description: as §2

[19] = at 25 μM (highest concentration tested)
[20] = Tables 1, 3, 4, 5 and footnotes, read-out: 1649 MIC
[21] = lead quinazolines, Table 8, read-out: MIC 1649
[22] = Tables 1, 3, 4, 5 and footnotes, read-out: 1650 MIC
[23] = lead quinazolines, Table 8, read-out: MIC 1650
[24] = Acinetobacter baumannii, 1646, strain 1646, Table 8 and text, read-out: MBC90 1646
[25] = Acinetobacter baumannii, Table 6, representative data for isolate 1646, read-out: MBC90
[26] = Tables 1, 3, 4, 5 and footnotes, read-out: 1651 MIC
[27] = lead quinazolines, Table 8, read-out: MIC 1651
[28] = Tables 1, 3, 4, 5 and footnotes, read-out: 1403 MIC
[29] = lead quinazolines, Table 8, read-out: MIC 1403
[30] = Table 6, representative data for isolate 1646, read-out: MIC
[31] = strain 1646, Tables 1, 3, 4, 5 and footnotes, read-out: 1646 MIC
[32] = strain 1646, lead quinazolines, Table 8, read-out: MIC 1646
[33] = Tables 1, 3, 4, 5 and footnotes, read-out: 1652 MIC
[34] = lead quinazolines, Table 8, read-out: MIC 1652

MIC (A. baumannii 1649 [2]; [20])	MIC (A. baumannii 1649 [2]; [21])	MIC (A. baumannii 1650 [4]; [22])	MIC (A. baumannii 1650 [4]; [23])	MIC (A. baumannii 1651 [7]; [26])	MIC (A. baumannii 1651 [7]; [27])	MIC (A. baumannii 1403 [8]; [28])	MIC (A. baumannii 1403 [8]; [29])	MIC (A. baumannii 1646 [9]; [30])	MIC (A. baumannii 1646 [9]; [31])	MIC (A. baumannii 1646 [9]; [32])	SMILES	MBC (A. baumannii 1652 [1])	HepG2 cell viability (human HepG2 cells; [19])	LD50(HepG2) (human HepG2 cells)	MBC (A. baumannii 1650 [3])	MBC (A. baumannii 1649 [5])	MBC (A. baumannii 1646 [6]; [24])	MBC (A. baumannii 1646 [6]; [25])	MBEC90 [10]	MBEC90 1646 [10]	further results
10 µM (≈ 3.32 µg/mL)	10 µM (≈ 3.32 µg/mL)	25 µM (≈ 8.31 µg/mL)	25 µM (≈ 8.31 µg/mL)	2 µM (≈ 0.665 µg/mL)	2 µM (≈ 0.665 µg/mL)	10 µM (≈ 3.32 µg/mL)	10 µM (≈ 3.32 µg/mL)	1 µM (≈ 0.332 µg/mL)	2 µM (≈ 0.665 µg/mL)	1 µM (≈ 0.332 µg/mL)	CCC/C=C/c1ccc2nc(NCc3ccccc3)nc(NC)c2c1 [Compound 26, (E)-N^2-Benzyl-N^4-methyl-6-(pent-1-en-1-yl)quinazoline-2,4-diamine]	23 µM (≈ 7.65 µg/mL)	41%	16 µM	16 µM (≈ 5.32 µg/mL)	10 µM (≈ 3.32 µg/mL)	1.8 µM (≈ 0.598 µg/mL)	1.8 µM (≈ 0.598 µg/mL)	8.9 µM	8.9 µM	HepG2 cell viability (human HepG2 cells; at 12 μM): 49%; complete bacterial eradication concentration as multiple of MIC (A. baumannii 1646 [6]; isolate 1646): 5 ×; concentration giving complete eradication of bacterial growth (A. baumannii 1646 [6]; isolate 1646): 5 µM; reduction in biofilm viability [10]: 1.4 log; MBC (A. baumannii 1651 [11]): 5.7 µM (≈ 1.89 µg/mL); MBEC90 1651 [12]: 24 µM; MIC (A. baumannii 1652 [13]; [33]): 30 µM (≈ 9.97 µg/mL); MIC (A. baumannii 1652 [13]; [34]): 30 µM (≈ 9.97 µg/mL); MBC (A. baumannii 1403 [14]): 40 µM (≈ 13.3 µg/mL); MBEC90 1650 [15]: 50 µM; MBEC90 1403 [16]: 24 µM; MBEC90 1652 [17]: 97 µM; MBEC90 1649 [18]: 63 µM
2 µM (≈ 0.669 µg/mL)	10 µM (≈ 3.34 µg/mL)	2 µM (≈ 0.669 µg/mL)	10 µM (≈ 3.34 µg/mL)	2 µM (≈ 0.669 µg/mL)	10 µM (≈ 3.34 µg/mL)	2 µM (≈ 0.669 µg/mL)	15 µM (≈ 5.02 µg/mL)	1 µM (≈ 0.334 µg/mL)	2 µM (≈ 0.669 µg/mL)	1 µM (≈ 0.334 µg/mL)	CCCCCc1ccc2nc(NCc3ccccc3)nc(NC)c2c1 [Compound 27, N^2-Benzyl-N^4-methyl-6-pentylquinazoline-2,4-diamine]	23 µM (≈ 7.69 µg/mL)	31%	12 µM	20 µM (≈ 6.69 µg/mL)	43 µM (≈ 14.4 µg/mL)	1.1 µM (≈ 0.368 µg/mL)	1.1 µM (≈ 0.368 µg/mL)	11.5 µM	12 µM	MBC (A. baumannii 1651 [11]): 4.1 µM (≈ 1.37 µg/mL); MBEC90 1651 [12]: 18 µM; MIC (A. baumannii): 2 µM (≈ 0.669 µg/mL); MIC (A. baumannii 1652 [13]; [33]): 10 µM (≈ 3.34 µg/mL); MIC (A. baumannii 1652 [13]; [34]): 20 µM (≈ 6.69 µg/mL); MBC (A. baumannii 1403 [14]): 20 µM (≈ 6.69 µg/mL); MBEC90 1650 [15]: 49 µM; MBEC90 1403 [16]: 12 µM; MBEC90 1652 [17]: 64 µM; MBEC90 1649 [18]: 62 µM
10 µM (≈ 3.44 µg/mL)	8 µM (≈ 2.76 µg/mL)	10 µM (≈ 3.44 µg/mL)	10 µM (≈ 3.44 µg/mL)	2 µM (≈ 0.689 µg/mL)	2 µM (≈ 0.689 µg/mL)	2 µM (≈ 0.689 µg/mL)	3 µM (≈ 1.03 µg/mL)	2 µM (≈ 0.689 µg/mL)	2 µM (≈ 0.689 µg/mL)	2 µM (≈ 0.689 µg/mL)	CNc1nc(NCc2ccccc2)nc2ccc(C3=CCCCC3)cc12 [Compound 29, N^2-Benzyl-6-(cyclohex-1-en-1-yl)-N^4-methylquinazoline-2,4-diamine]	11 µM (≈ 3.79 µg/mL)	32%	23 µM	16 µM (≈ 5.51 µg/mL)	9.1 µM (≈ 3.13 µg/mL)	1.5 µM (≈ 0.517 µg/mL)	1.5 µM (≈ 0.517 µg/mL)	8.9 µM	8.9 µM	HepG2 cell viability (human HepG2 cells; at 12 μM): 42%; reduction in biofilm viability [10]: 1.6 log; MBC (A. baumannii 1651 [11]): 4 µM (≈ 1.38 µg/mL); MBEC90 1651 [12]: 21 µM; MIC (A. baumannii): 2 µM (≈ 0.689 µg/mL); MIC (A. baumannii 1652 [13]; [33]): 30 µM (≈ 10.3 µg/mL); MIC (A. baumannii 1652 [13]; [34]): 30 µM (≈ 10.3 µg/mL); MBC (A. baumannii 1403 [14]): 22 µM (≈ 7.58 µg/mL); MBEC90 1650 [15]: 48 µM; MBEC90 1403 [16]: 20 µM; MBEC90 1652 [17]: 77 µM; MBEC90 1649 [18]: 58 µM

Source: patent US10323007B1, “N2N N4-disubstituted quinazoline-2,4-diamines and uses thereof” (University of South Florida, priority 2016, dated 2019)
